Results taken from US8735167B2, “Photoinduced signal amplification through externally sensitized photofragmentation in masked photosensitizers and photoamplified fluorescence turn-off system” (Colorado Seminary, which owns and operates The University …, priority 2007, dated 2014).
One block for each compound: values may come before it.

Assays:
[1] = Stern-Volmer fluorescence quenching of fluorene; assay type: physicochemical; parameters: unit not given here; conditions: fluorene 10^−5 M, in CH2Cl2
[2] = near diffusion controlled; previously shown; cited from earlier work
[3] = Stern-Volmer fluorescence quenching of p-terphenyl; assay type: physicochemical; parameters: unit not given here; conditions: p-terphenyl 10^−5 M
Description: p-Oligophenylenes are known as durable fluorophores, and commonly used as a dye in dye lasers due to their resistance to photobleaching, a desirable characteristic for this application.

[4] = Pulse Field Gradient 19F NMR diffusion in N-n-octadecylurea organogels made in t-butyl benzene; assay type: physicochemical
Description: The PFG NMR experiments allow for measuring diffusion coefficients of molecules of interest in complex mixtures, including gels. The successful photoamplification relies on adequate diffusion coefficients. The diffusion coefficients obtained for 4-trifluoromethylbenzophenone in gelated tert-butylbenzene and other solvents were within 10-15% of that in free (not gelated) solvents, which means that the gelation has no detrimental effect on photochemistry.

[5] = 19F PFG NMR diffusion in ionic liquid; assay type: physicochemical; conditions: in N-methyl-N,N,N-trioctylammonium bis-triflylamide
Description: Another use of ionic liquids for photoamplified bioanalytical methods is for electrochemical detection. […] Unmasking of the sensitizer dramatically changes the redox properties of the system which can be utilized in electrochemical detection of photoamplification. Again, as mentioned above, ionic liquids can be gelated and used in a form of pixilated bioanalytical array. […] The ^19F PFG NMR measurements of diffusion of 4-(trifluoromethyl)benzophenone in N-methyl-N,N,N-trioctylammonium bis-triflylamide produced the translational diffusion coefficient of 9×10^−7 cm^2 s^−1, which is still adequate for bimolecular collisional quenching of triplet benzophenone, necessary for the photoamplification. N-Methyl-N,N,N-trioctylammonium bis-triflylamide is the most viscous ionic liquid which we tested in our experiments. Other, much less viscous ionic liquids, for example N,N-dimethyl-N,N-dihexylammonium bis-triflylamide, performed even better.

[6] = in non-polar solvents; cited from earlier work

Compound: CC1(C(O)(c2ccccc2)c2ccccc2)SCCCS1 [MDT BP adduct, 2-methyl-1,3-dithiane benzophenone adduct]
Ksv, fluorescence quenching of fluorene [1]: 2300
rate of quenching of benzophenone triplet via electron transfer reduction [2]: 10^9 M^−1 s^−1
Ksv, fluorescence quenching of p-terphenyl ([3]; in CH2Cl2): 80
Ksv, fluorescence quenching of p-terphenyl ([3]; in t-BuPh): 40

Diffusion Coefficient ([4]; 0 % N-n-Octadecylurea, t-butyl benzene): 6.50 × 10^−6 cm^2 s^−1
Diffusion Coefficient ([4]; 2 % N-n-Octadecylurea, t-butyl benzene organogel): 5.32 × 10^−6 cm^2 s^−1
Diffusion Coefficient ([4]; 4 % N-n-Octadecylurea, t-butyl benzene organogel): 5.60 × 10^−6 cm^2 s^−1
Diffusion Coefficient ([4]; 6 % N-n-Octadecylurea, t-butyl benzene organogel): 5.34 × 10^−6 cm^2 s^−1
Difference of diffusion coefficient in gelated solvent from that in free (not gelated) solvent ([4]; gelated tert-butylbenzene and other solvents): 10-15%
translational diffusion coefficient [5]: 9×10^−7 cm^2 s^−1
Compound: O=C(c1ccccc1)c1ccc(C(F)(F)F)cc1 [4-trifluoromethyl-benzophenone, 4-trifluoromethylbenzophenone]

Ksv, fluorescence quenching of p-terphenyl ([3]; in CH2Cl2): smaller than for MDT BP adduct
Compound: OC(c1ccccc1)c1ccccc1 [benzhydrol]

Ksv, fluorescence quenching of p-terphenyl ([3]; in CH2Cl2): smaller than for MDT BP adduct
Compound: CC1SCCCS1 [dithiane, 2-methyl-1,3-dithiane]

Compound: c1ccc2c(c1)Cc1ccccc1-2 [Fluorene]
fluorescence lifetime [6]: 10 ns
